{"source": "patent US20100286082A1", "about": "“RIBOSWITCHES AND METHODS AND COMPOSITIONS FOR USE OF AND WITH RIBOSWITCHES” (Yale University, priority 2007, published 2010)", "key": {"17-90 RNA [1]": {"test_system": "17-90 RNA", "test": "Equilibrium dialysis of 3H-preQ1 with 17-90 RNA", "format": "binding, Streptococcus pneumoniae R6", "settings": "excess unlabeled compound added to chamber a after equilibration", "method": "Equilibrium dialysis experiments were preformed with ^3H-preQ1 and the 17-90 RNA construct to confirm ligand binding and the specificity of molecular recognition using a different methodology. For equilibrium dialysis, ^3H-preQ1 was added to chamber a of an equilibrium dialysis apparatus, and excess RNA is added to chamber b. The two chambers are separated by a 5,000 Dalton molecular weight cut off dialysis membrane (FIG. 18A). The solutions were allowed to equilibrate and the fraction of tritium in each chamber was subsequently measured by liquid scintillation counting. […] When ^3H-preQ1 ([…]) is equilibrated without RNA, or with an RNA that lacks the ability to form the P3 stem (1-81 RNA), the ^3H label distributes evenly (b/a ˜1). […]\nA 30 μl mixture containing 50 mM Tris-HCl (pH 8.3 at 23° C.), 20 mM MgCl2, 100 mM KCl, and 1 μM of ^3H-labeled preQ1 was placed in one chamber of a DispoEquilibrium Dialyzer (ED-1, Harvard Bioscience) and the same volume containing the same constituents minus the ^3H-labeled preQ1 was added to the opposing side. When noted, the latter solution also contained either 5 μM 17-90 RNA or 5 μM 1-81 RNA. After equilibrating for 14 hours, a 5 μl aliquot was removed from each side of the apparatus to determine the distribution of ^3H-label in the two chambers by liquid scintillation counting. […]"}, "17-90 RNA mutant U41": {"test_system": "17-90 RNA mutant U41", "test": "In-line probing of mutant (U41) 17-90 RNA", "format": "binding, Streptococcus pneumoniae R6", "settings": "compared with wild type"}, "17-90 RNA [2]": {"test_system": "17-90 RNA", "test": "In-line probing of 17-90 RNA (preQ1-II aptamer)", "format": "binding, Streptococcus pneumoniae R6", "settings": "compound concentrations up to 1 mM"}, "68 metH RNA": {"biological_target": "68 metH RNA", "test": "In-line probing of 68 metH RNA (SAH aptamer)", "format": "binding, Dechloromonas aromatica", "settings": "in-line probing; read-out: apparent dissociation constant KD", "method": "iii. In-Line Probing Analysis In-line probing assays were carried out essentially as previously described (Soukup and Breaker, 1999). 5′^32P-labeled RNAs were incubated at room temperature for approximately 40 h in 10 μl volumes containing 50 mM Tris-HCl (pH 8.3 at 25° C.), 20 mM MgCl2, 100 mM KCl, and included test compounds at the concentrations indicated. Spontaneous cleavage products were separated by denaturing 10% PAGE, visualized using a Phosphorlmager (Molecular Dynamics), and quantified using SAFA v1.1 software (Das et al., 2005). The amount of RNA cleaved at each nucleotide position was obtained from SAFA analysis, which automatically determines reference nucleotide positions with invariant levels of spontaneous cleavage to correct for different amounts loaded in each lane. Individual band intensities at each modulated site were summed and normalized to obtain values for the fraction of RNA that was structurally modulated, assuming that there was no modulation in the absence of ligand and maximal modulation in the presence of the highest concentration of ligand. Values for the apparent dissociation constant (KD) were determined by fitting the plot of the fraction modulated (F), versus the ligand concentration, [L], at all three indicated modulation sites to the equation F [L]/([L]+KD) using SigmaPlot 9 software (Systat Software, Inc.)."}, "[3]": {"biological_target": "SAM-I riboswitch 124 yitJ", "settings": "cited from earlier work"}, "[4]": {"biological_target": "132 Sc RNA (SAM-IV riboswitch)", "test": "In-line probing of 132 Sc RNA (SAM-IV)", "format": "binding, Streptomyces coelicolor", "excerpt": "DNA corresponding to the aptamer in the pEZ35 plasmid (above) was amplified by PCR with primers 5′-[…]"}, "SAM-II aptamer 156 metA": {"test_system": "SAM-II aptamer 156 metA", "settings": "representative of SAM-II aptamers, Lim et al., 2006b; cited from earlier work"}, "[5]": {"biological_target": "SAM-I riboswitch 124 yitJ", "test": "SAM-I riboswitch binding (literature)", "settings": "ratio of the KD for the compound to that for SAM"}, "[6]": {"test_system": "SAH riboswitch of the ahcY 5′-UTR fused to lacZ (WT reporter strain)", "test": "In vivo reporter gene expression, ahcY 5′ UTR-lacZ translational fusion", "format": "cell-based, Pseudomonas syringae", "settings": "Vogel-Bonner minimal medium supplemented with 250 μM compound", "method": "An in vivo gene control assay was conducted wherein the IGR encompassing the 5′ UTR of the ahcY gene in P. syringae was fused immediately upstream of a lacZ coding sequence. This construct retained the start codon of the ahcY gene, which was fused in frame with the reporter gene ORF. The resulting translational fusion vector was transformed into P. syringae to produce the wild-type (WT) reporter strain. Similarly, a series of mutant reporter strains were constructed that are expected to disrupt or restore aptamer function (FIG. 13A). Transformed P. syringae strains subsequently were grown in either King's medium B (rich) or Vogel-Bonner medium (minimal), and the reporter expression levels of the mutant constructs were compared to the results from the WT reporter construct (FIG. 13B).\nNucleotides ˜367 to +6 relative to the predicted ahcY translation start site (GenBank accession: NC—004578.1; nucleotides 5,771,072 to 5,771,444) were amplified as a BamHI-HindIII fragment by whole-cell PCR of Pseudomonas syringae pv. tomato str. DC3000. The PCR product was cloned into the translational fusion vector pRA301 (Akakura and Winans, 2002) immediately upstream of the lacZ reporter gene. This reporter vector is stably maintained in pseudomonas since it harbors the origin of replication rep and stability region sta derived from the pseudomonas aeruginosa vector pVS1 (Itoh et al., 1984). […]"}}, "data": [{"smiles": "Nc1nc2nc[nH]c2c(=O)[nH]1", "note": "[guanine]", "values": [{"measurement": "competition with 3H-preQ1 (distribution of 3H label)", "setting": "17-90 RNA [1]", "result": "has no effect on the distribution of ^3H"}]}, {"smiles": "Nc1nc(N)c2[nH]cnc2n1", "note": "[DAP, 2,6-diaminopurine]", "values": [{"measurement": "binding by the U41 mutant", "setting": "17-90 RNA mutant U41", "result": "essentially the same affinity as wild type"}, {"measurement": "binding by 17-90 RNA", "setting": "17-90 RNA [2]", "result": "near identical KD values"}]}, {"smiles": "Nc1ncnc2c1ncn2[C@@H]1O[C@H](CSCC[C@H](N)C(=O)O)[C@@H](O)[C@H]1O", "note": "[SAH, S-adenosylhomocysteine]", "values": [{"measurement": "Kd", "setting": "68 metH RNA", "result": "~20", "unit": "nM"}, {"measurement": "Kd", "setting": "[3]; calculated previously (Lim et al. 2006), read-out: KD [compound] (nM) SAM-I", "result": 400, "unit": "nM"}, {"measurement": "discrimination against SAH", "setting": "[3]; representative of SAM-I aptamers, Lim et al., 2006b", "result": "~80", "unit": "fold"}, {"measurement": "Kd", "setting": "[4]; in-line probing, 132 Sc RNA, read-out: apparent dissociation constant (KD)", "result": 20, "unit": "µM"}, {"measurement": "KD [compound]/ KD [SAM] SAM-IV", "setting": "[4]; ratio of the KD for the compound to that for SAM", "result": 133}, {"measurement": "discrimination against SAH", "setting": "SAM-II aptamer 156 metA", "result": "more than 1000 fold"}, {"measurement": "KD [compound]/ KD [SAM] SAM-I", "setting": "[5]", "result": 80}, {"measurement": "riboswitch-mediated reporter expression", "setting": "[6]", "result": "only slightly increases reporter expression"}]}]}
